We go through twelve compounds from ChEMBL document CHEMBL4145596, “Design, Synthesis, and X-ray of Selenides as New Class of Agents for Prevention of Diabetic Cerebrovascular Pathology” (ACS Med Chem Lett, 2018).

Calls of active or inactive are those of the source. The calls are words filed in the database; no cut-off is given here.

For data set [1], the system named is RBE4. Nature of the data set: Protection against glucose oxidase-induced oxidative stress in rat RBE4 cells assessed as increase in cell viability at 10 to 100 uM cotreated with glucose oxidase for 1 hr measured after 24 hrs by MTT assay. Type of data set: functional, cell-based.
Data set [2] deals with RBE4. Nature of the data set: Cytotoxicity against rat RBE4 cells assessed as mortality at 10 uM after 24 hrs by MTT assay. Type of data set: cell-based. To be noted: rbe4, 24 h. In general terms: Tetrazolium assays rely on reduction of a dye to a coloured formazan, in cell work by metabolically active cells.
In a further data set the target is Carbonic anhydrase 9 (Homo sapiens, UniProt Q16790).
In data set [3] the test system is RBE4. Briefly: Cytotoxicity against rat RBE4 cells assessed as mortality at 30 uM after 24 hrs by MTT assay. The data set is classed as cell-based. To be noted: rbe4, 24 h.
In data set [4] the test system is RBE4. Briefly: Protection against glucose oxidase-induced oxidative stress in rat RBE4 cells assessed as increase in cell viability at 100 uM cotreated with glucose oxidase for 1 hr measured after 24 hrs by MTT assay. The data set is classed as functional, cell-based.

Broadly, the Ki is a measure of affinity in units of concentration, obtained from inhibition or displacement. For orientation: mortality means the percentage killed.

Description for Carbonic anhydrase 9: Inhibition of human carbonic anhydrase 9 after 15 mins by stopped flow carbon dioxide hydration assay

As for `CC(C)[Se]c1ccc(S(N)(=O)=O)cc1`, the outcome in the data set on RBE4 [1] was inactive. In the data set on RBE4 [2], the Activity result is on record as “Non-Toxic”. At Carbonic anhydrase 9, this compound yielded a Ki of 2.4 nM.

Turning to `NS(=O)(=O)c1ccc([Se]CCO)cc1`, the outcome with RBE4 [1] was inactive. For the same compound, in the data set with RBE4 [2], the Activity entry was “Non-Toxic”. Also, affinity on Carbonic anhydrase 9 was put at a Ki of 2.4 nM.

Regarding `C#CC[Se]c1ccc(S(N)(=O)=O)cc1`, the Ki on Carbonic anhydrase 9 turned out to be 2.7 nM.

Take `NS(=O)(=O)c1ccc([Se]C2CCCCC2)cc1`: affinity on Carbonic anhydrase 9 was put at a Ki of 2.6 nM.

As to `CCCCC[Se]c1ccc(S(N)(=O)=O)cc1`, in the data set with RBE4 [1], the outcome was inactive. Besides, the Activity result in the data set with RBE4 [2] is given as “Non-Toxic”. Moreover, the Ki at Carbonic anhydrase 9 came out at 2.6 nM.

The compound `CC#CC[Se]c1ccc(S(N)(=O)=O)cc1` came in with an inhibitory constant (Ki) at Carbonic anhydrase 9 of 2.2 nM.

As to `C[Se]c1ccc(S(N)(=O)=O)cc1`, affinity on Carbonic anhydrase 9 was put at a Ki of 2.7 nM. This Ki and that of the compound before are within 1.5-fold of each other.

For `NS(=O)(=O)c1ccc([Se][Se]c2ccc(S(N)(=O)=O)cc2)cc1`, in the data set with RBE4 [3], the mortality is listed as 50%.

In turn, `C=CC[Se]c1ccc(S(N)(=O)=O)cc1` had a Ki on Carbonic anhydrase 9 of 2.6 nM. This counts as single-digit nanomolar.

In turn, `NS(=O)(=O)c1ccc([Se]CCc2ccccc2)cc1` registered a Ki at Carbonic anhydrase 9 of 8.7 nM.

For the compound `COCC[Se]c1ccc(S(N)(=O)=O)cc1`, the Activity result in the data set on RBE4 [2] was “Non-Toxic”. Besides, on Carbonic anhydrase 9, affinity was put at a Ki of 12 nM. In the data set with RBE4 [4], the result was Active.

In the case of `NS(=O)(=O)c1ccc(C[Se]c2ccccc2)cc1`, at Carbonic anhydrase 9, the Ki was 2.7 nM.
